Assay results reported in patent US5506268A, “Use of isovaleramide as a mild anxiolytic and sedative agent” (priority 1993, dated 1996).
≈ marks a conversion by molar mass, not a printed value. Where “and” joins values, the source holds several entries; their conditions need not be identical. Equal values may be shown once. Entries after “also recorded” stand apart in the source; their conditions may differ. Read-outs that look alike come from different tables or passages of the source.

What was measured:
male rats [1] = assay: Spontaneous locomotor activity measured electronically (sedative effect); assay type: in vivo, rat; conditions: for relative potency as strong sedative-hypnotic agent, valnoctamide versus isovaleramide: FIG. 3
Excerpt: General sedative effects can also be measured electronically by recording drug-induced decreases in spontaneous locomotor activity in treated experimental animals, as shown in FIG. 3.

[2] = cited from earlier work
male rats [3] = assay: Hypnotic activity (loss of the righting reflex) in rats; conditions: Rattus norvegicus, ip, read-out: hypnotic dose
Experimental: Hypnotic activity was assessed by simply determining the doses of the test substances (administered by IP injection) sufficient to cause a loss of the righting reflex (see above) and an apparent loss of consciousness and responsiveness.

[4] = tested on: aggressive experimental animals and anxious humans; conditions: cited from earlier work
male mice [5] = conditions: Roszkowski and Govier 1962; cited from earlier work
P388 = assay: In vitro cytotoxicity (cell growth inhibition), P388; assay type: cell-based, human and murine; conditions: Mus musculus, read-out: EC50 (concentration that inhibited cell growth by 50%)
Experimental: (§1) The valepotriate compounds valtrate, didrovaltrate and acevaltrate were compared with isovaleramide with respect to their effects on various human and murine tumor cell lines. The cells at log-phase growth were treated with various concentrations of test substances for 48 hr. Growth rates were then determined by directly counting cell numbers or by protein determination. EC50 is the effective concentration of test substance that inhibited cell growth by 50%.

KB = assay: In vitro cytotoxicity (cell growth inhibition), KB; assay type: cell-based, human and murine; conditions: Homo sapiens, read-out: EC50 (concentration that inhibited cell growth by 50%)
Experimental: as §1

BCA-1 = assay: In vitro cytotoxicity (cell growth inhibition), BCA-1; assay type: cell-based, human and murine; conditions: read-out: EC50 (concentration that inhibited cell growth by 50%)
Experimental: as §1

MEL-2 = assay: In vitro cytotoxicity (cell growth inhibition), MEL-2; assay type: cell-based, human and murine; conditions: read-out: EC50 (concentration that inhibited cell growth by 50%)
Experimental: as §1

KB-V1 = assay: In vitro cytotoxicity (cell growth inhibition), KB-V1; assay type: cell-based, human and murine; conditions: Homo sapiens, read-out: EC50 (concentration that inhibited cell growth by 50%)
Experimental: as §1

COL-2 = assay: In vitro cytotoxicity (cell growth inhibition), COL-2; assay type: cell-based, human and murine; conditions: Homo sapiens, read-out: EC50 (concentration that inhibited cell growth by 50%)
Experimental: as §1

HT-1080 = assay: In vitro cytotoxicity (cell growth inhibition), HT-1080; assay type: cell-based, human and murine; conditions: Homo sapiens, read-out: EC50 (concentration that inhibited cell growth by 50%)
Experimental: as §1

LUC-1 = assay: In vitro cytotoxicity (cell growth inhibition), LUC-1; assay type: cell-based, human and murine; conditions: read-out: EC50 (concentration that inhibited cell growth by 50%)
Experimental: as §1

male Sprague-Dawley rats [6] = assay: Vogel Conflict (anxiolytic) Assay, punished licks; assay type: in vivo, rat; conditions: for anxiolytic activity in Vogel Conflict Assay: comparable dose levels (500-1000 mg/kg)
Excerpt: In the Vogel Conflict Paradigm, thirsty rats are given mild electric shocks through a metal water dispenser when they try to drink. The shock is unpleasant, but not severe enough to cause overt pain. When administered anxiolytic drugs, the rats lick the dispenser more often than controls. Assessment of anxiolytic effects is thus measured as an increased number of licks.
Animals (male Sprague-Dawley rats, 250-300 g) are deprived of water for 24 hr and are then placed into a clear Plexiglass box (45 cm×25 cm×20 cm) which rests on a grid of stainless steel bars. A circuit between the grid bars and the drinking spout is established with a silver electrode in a drinking bottle placed in the chamber. The animals are allowed to lick the water dispenser for 5 min without shock; those animals that fail to lick are excluded from further study.
The animals are returned to the home colony and are again deprived of water for 24 hr and replaced in the chamber and allowed to lick for 1 min without shock. Then a 1 milliamp current (shock) is maintained for 4 min at the drinking spout. Only the animals showing 50% suppression in licking behavior compared to the first session are included in further testing.
The test substances are injected intraperitoneally (IP) after this session, and 30 min later the animals are again placed into the chamber. Again the animals are allowed to lick without shock for 1 min and the shock is instituted for the remaining 4 min. The number of punished licks during this time is used to assess anxiolytic activity.
The "anxiolytic index" is defined as the ratio of the number of punished licks of test animals to that of control animals during a 4-min period. An anxiolytic index greater than one indicates anxiolytic ("calmative") activity. In practice, it is considered that significant "calmative" activity is observed when the anxiolytic index is greater than 1.5.
Male Sprague-Dawley rats (250-300 g) were deprived of water for 24 hours before testing. The animals were allowed one five-minute period of drinking in the experimental chamber before receiving the test substances at the indicated doses. Thirty minutes later, the animals were returned to the chamber and allowed to drink for one minute without punishment. For the remaining four minutes, a shock was delivered to the drinking spout and the number of punished licks was recorded. Four or five animals were tested in each group.

[7] = Acute toxicity (LD50) and therapeutic index; assay type: in vivo; conditions: mouse, in vivo; mice, IP
Experimental: (§2) Convulsant activity was tested for N,N-diethylisovaleramide and isovaleramide itself. The potential for CNS-stimulating and convulsant properties was assessed by administering appropriate doses of the test substances IP to rodents (male mice and rats). […] At the highest dose of isovaleramide tested (4000 mg/kg IP), some deaths resulted among the test animals (male mice) after sleeping for several days, apparently from respiratory depression. […] Further testing of isovaleramide at still higher dose levels was precluded by its solubility limits and the consequently overly large injection volumes required.

male mice [8] = assay: Acute toxicity (LD50) and therapeutic index; assay type: in vivo; conditions: male mice, 4000 mg/kg IP
Experimental: as §2

experimental animals = conditions: cited from earlier work; for narcotic and hypnotic effects: experimental animals
[9] = in vivo; cited from earlier work
male mice [10] = assay: Direct observation of sedation / general activity level; assay type: in vivo, mouse; conditions: for minimal effective dose: Mus musculus, mice, IP; for observed sedative effects: male mice
Experimental: Sedative activity elicited by a test substance can be observed directly in experimental animals by a decrease in spontaneous locomotor activity, e.g., in open-field observation experiments. In such experiments, test animals are administered the test substance (usually by IP injection) and, after a suitable waiting period (usually 5-30 min), are placed into an open-field test chamber, which consists of a transparent plastic box with a clearly visible grid painted on the bottom (or floor). The numbers of excursions across the floor grids are then counted over a specified time period (usually 1-3 hours) and are subsequently compared with the numbers obtained from similarly treated saline controls. The number of grid crossings counted gives a direct measurement of the general activity level (measured as spontaneous locomotor activity) of each test animal in question. Sedative activity can be expressed as a percentage of the control level of spontaneous locomotor activity as measured by grid crossings per unit time.

hepatic porphyria = conditions: literature; cited from earlier work
[11] = tested on: various human and murine tumor cell lines; assay: Cytotoxicity summary over tumor cell lines; assay type: cell-based; conditions: summary of Table 1
Experimental: as §1

male mice [12] = assay: Hypnotic activity (loss of the righting reflex) in mice; assay type: in vivo; conditions: Mus musculus, ip
rats = conditions: rat, in vivo
Experimental: as §2

male mice [13] = conditions: mouse, in vivo, ip
Experimental: as §2

male Sprague-Dawley rats [14] = conditions: injected at therapeutically effective doses; cited from earlier work

## CCC(C)C(CC)C(N)=O (racemic) [valnoctamide]
Male rats [1]
  relative potency as strong sedative-hypnotic agent, valnoctamide versus isovaleramide: about ten times more potent than isovaleramide
[2]
  water solubility: very water insoluble
Male rats [3]
  minimal effective dose: 250 mg/kg and 1750 µmol/kg
[4]
  tranquilizing and anxiety-reducing properties: purported to exhibit tranquilizing and anxiety-reducing properties
Male mice [5]
  therapeutic index: ~11.4

## CC(=O)OCC1=CO[C@@H](OC(=O)CC(C)C)[C@H]2C1=C[C@H](OC(=O)CC(C)(C)OC(C)=O)[C@]21CO1 [Acevaltrate]
P388; P388, 48 hr
  EC50: 0.88 µg/mL (≈ 1.83 µM)
KB; 48 hr
  EC50: 2.7 µg/mL (≈ 5.62 µM)
BCA-1; BCA1, BCA-1, 48 hr
  EC50: 1.94 µg/mL (≈ 4.04 µM)
MEL-2; MEL2, MEL-2, 48 hr
  EC50: 0.75 µg/mL (≈ 1.56 µM)
KB-V1; KB-V1, 48 hr
  EC50: 2.26 µg/mL (≈ 4.7 µM)
COL-2; Col2, COL-2, 48 hr
  EC50: 2.89 µg/mL (≈ 6.01 µM)
HT-1080; HT-1080, 48 hr
  EC50: 2.05 µg/mL (≈ 4.27 µM)
LUC-1; LUC1, LUC-1, 48 hr
  EC50: 4.3 µg/mL (≈ 8.95 µM)

## CC(=O)O[C@H]1C[C@@H]2C(COC(=O)CC(C)C)=CO[C@@H](OC(=O)CC(C)C)[C@@H]2[C@@]12CO2 [Didrovaltrate]
P388; P388, 48 hr
  EC50: 0.19 µg/mL (≈ 0.448 µM)
KB; 48 hr
  EC50: 2.03 µg/mL (≈ 4.78 µM)
BCA-1; BCA1, BCA-1, 48 hr
  EC50: 0.7 µg/mL (≈ 1.65 µM)
MEL-2; MEL2, MEL-2, 48 hr
  EC50: 0.42 µg/mL (≈ 0.989 µM)
KB-V1; KB-V1, 48 hr
  EC50: 1.29 µg/mL (≈ 3.04 µM)
COL-2; Col2, COL-2, 48 hr
  EC50: 1.49 µg/mL (≈ 3.51 µM)
HT-1080; HT-1080, 48 hr
  EC50: 0.7 µg/mL (≈ 1.65 µM)
LUC-1; LUC1, LUC-1, 48 hr
  EC50: 2.91 µg/mL (≈ 6.86 µM)

## CC(C)CC(N)=O [Isovaleramide, isovaleramide]
Male rats [1]; 250 mg/kg IP
  decrease in spontaneous locomotor activity: decreased locomotor activity to a level comparable to that induced by valnoctamide at 25 mg/kg
Male rats [1]; 500 mg/kg IP
  decrease in spontaneous locomotor activity: comparable to that induced by valnoctamide at 50 mg/kg IP
Male rats [1]
  relative potency as strong sedative-hypnotic agent, valnoctamide versus isovaleramide: only about one-tenth of the potent sedative-hypnotic properties exhibited by valnoctamide
P388; P388, 48 h
  EC50: > 20 µg/mL
KB; 48 h
  EC50: > 20 µg/mL
[2]
  water solubility: essentially water soluble
BCA-1; BCA1, 48 h
  EC50: > 20 µg/mL
Male Sprague-Dawley rats [6]; IP, 500-1000 mg/kg
  increase in the number of punished licks over controls: approximate three-fold increase
MEL-2; MEL2, 48 h
  EC50: > 20 µg/mL
[7]
  LD50: > 4000 mg/kg
  selectivity ratio: ~40
Male mice [8]
  survival: more than half of the experimental animals survived
Male mice [8]; after sleeping for several days
  mortality: some deaths
KB-V1; KB-V1, 48 h
  EC50: > 20 µg/mL
Experimental animals; Impens 1912, Junkmann 1937
  clinical usefulness as a hypnotic: clinically useless as a hypnotic
Experimental animals
  narcotic and hypnotic effects: narcotic and hypnotic effects in experimental animals when administered in very high doses; also recorded: hypnotic activity only when administered to experimental animals in very high doses
[9]
  anticonvulsant properties: no anticonvulsant properties
COL-2; Col2, 48 h
  EC50: > 20 µg/mL
Male mice [10]; naive observers, read-out: dose at which naive observers distinguish treated mice from saline controls
  minimal effective dose: 250 mg/kg
Male mice [10]; very astute observers, read-out: dose at which very astute observers distinguish treated mice from controls
  minimal effective dose: 100 mg/kg
Male mice [10]; 1000 mg/kg IP
  observed sedative effects: clearly sedentary
Male mice [10]; 500 and 1000 mg/kg IP
  observed sedative effects: much more pronounced
Hepatic porphyria
  hepatic porphyria-inducing properties: no hepatic porphyria-inducing properties
HT-1080; HT-1080, 48 h
  EC50: > 20 µg/mL
LUC-1; LUC1, 48 h
  EC50: > 20 µg/mL
[11]
  cytotoxicity: no cytotoxicity
Male mice [12]; mice, IP, not hypnotic even at 1000 mg/kg, hypnotic at 2000 mg/kg, read-out: hypnotic dose
  minimal effective dose: > 1000 mg/kg
Male mice [12]; mice, IP, not hypnotic even at this dose, read-out: hypnotic dose
  minimal effective dose: > 9900 µmol/kg
Male mice [12]; very large doses approaching toxic dose levels, read-out: dose producing hypnosis
  minimal effective dose: > 1000 mg/kg

## CC(C)CC(=O)O [Isovaleric acid]
Experimental animals
  narcotic and hypnotic effects: narcotic and hypnotic effects in experimental animals when administered in very high doses

## CCN(CC)C(=O)CC(C)C [N,N-Diethylisovaleramide, N,N-diethylisovaleramide]
Male Sprague-Dawley rats [6]; Vogel assay (FIG. 2)
  dose with CNS-stimulating (excitant) activity: 50 mg/kg
rats
  CNS-stimulating, anxiogenic and convulsant properties: CNS-stimulating, anxiogenic, and convulsant properties
rats; ip
  dose at which potent convulsant: 250 mg/kg
Male mice [13]
  dose causing death following convulsive seizures: 500 mg/kg
  dose with potent CNS-stimulating and convulsant properties: 250 mg/kg

## CC(=O)OCC1=CO[C@@H](OC(=O)CC(C)C)[C@H]2C1=C[C@H](OC(=O)CC(C)C)[C@]21CO1 [Valtrate]
P388; P388, 48 h
  EC50: 0.06 µg/mL (≈ 0.142 µM)
KB; 48 h
  EC50: 0.51 µg/mL (≈ 1.21 µM)
BCA-1; BCA1, 48 h
  EC50: 0.41 µg/mL (≈ 0.97 µM)
MEL-2; MEL2, 48 h
  EC50: 0.39 µg/mL (≈ 0.923 µM)
KB-V1; KB-V1, 48 h
  EC50: 0.72 µg/mL (≈ 1.7 µM)
COL-2; Col2, 48 h
  EC50: 0.59 µg/mL (≈ 1.4 µM)
HT-1080; HT-1080, 48 h
  EC50: 0.41 µg/mL (≈ 0.97 µM)
LUC-1; LUC1, 48 h
  EC50: 2 µg/mL (≈ 4.73 µM)

## CN1C(=O)CN=C(c2ccccc2)c2cc(Cl)ccc21 [diazepam]
Male Sprague-Dawley rats [14]
  increase in the number of licks: ten-fold increase

## CCCC(N)=O [n-Butyramide]
Male Sprague-Dawley rats [6]; IP
  anxiolytic activity in Vogel Conflict Assay: no significant anxiolytic activity

## OC[C@H]1O[C@@](CO)(O[C@H]2O[C@H](CO)[C@@H](O)[C@H](O)[C@H]2O)[C@@H](O)[C@@H]1O [sucrose]
Male Sprague-Dawley rats [6]; IP
  anxiolytic activity in Vogel Conflict Assay: no significant anxiolytic activity
